Literature values as cited in US9579288B2, “Tesofensine and beta blocker combination formulations” (Saniona A/S, priority 2015, dated 2017).

Assays:
[1] = obese patients, long-term treatment, corrected for placebo and diet effects
DIO rats = settings: rat model of diet-induced obesity (DIO)

CCOC[C@@H]1[C@@H](c2ccc(Cl)c(Cl)c2)C[C@@H]2CC[C@H]1N2C [Tesofensine, (1R,2R,3S,5S)-3-(3,4-dichlorophenyl)-2-(ethoxymethyl)-8-methyl-8-azabicyclo[3.2.1]octane]
weight loss [1]: about 10% | body weight (DIO rats): robust and sustained weight loss
